Assay results taken from patent US11793849B2, “Method of Chinese herbal medicine extract used for treating multiple diseases caused by drug resistant bacteria infection” (priority 2016, dated 2023).
≈ marks a conversion by molar mass, not a printed value. Where two headings read alike, the source gives them in different places.

Columns and labels:
MDRPA = test: Checkerboard assay (combined-use MIC, FIC); type: cell-based, Pseudomonas aeruginosa; details: for FIC, all strains / MIC50 of the antibiotic after combined use / MIC90 of the antibiotic after combined use / reduction of the antibiotic's MIC50 vs single use / reduction of the antibiotic's MIC90 vs single use / share of strains with FIC ≤ 0.5: 20 MDRPAs; for combined-use MIC: EA (P. clypearia water extract) combined with AMK
Procedure: (§1) Test methods of the sensibilization effects of the test product to similar antibiotics: it is operated by referring to a checkerboard assay recommended by NCCLS.
(§2) The checkerboard assay is performed in a 96-pore sterile culture plate.
(§3) Calculation of a Fractional Inhibitory Concentration (FIC): FIC=S20b combined-use MIC/S20b single-use MIC+antibiotic combined-use MIC/antibiotic single-use MIC. By calculating the FIC, the combined antibacterial interaction between the EA and the antibiotic is evaluated, with synergistic effect for FIC≤0.5, additive effect for 0.5<FIC≤1, indifferent effect for 1<FIC≤2 and antagonistic effect for FIC>2. According to a sterile growth pore, the optimum concentration ratio between the EA and the antibiotic is founded out. At last, the effect of the EA to strengthen the efficacy of the antibiotic is evaluated.

ESBL-producing ECO [1] = test: MIC determination, microdilution broth method; type: cell-based, Escherichia coli
Procedure: Determination methods of a Minimal Inhibitory Concentration (MIC) and a Minimum Bactericidal Concentration (MBC) of a test product: the MIC and the MBC of the Pithecellobium clypearia Benth water or ethanol extract to the MDRAB are determined by a microdilution broth method. And it is operated by referring to the microdilution broth method recommended by National Committee for Clinical Laboratory Standards (NCCLS).
By determining the MIC and the MBC of the drug and making statistics of the data to obtain MIC50, MIC90, MBC50 and MBC90, the effect of the MDRA resistance of the drug is evaluated.

ESBL-producing ECO [2] = test: Checkerboard assay (combined-use MIC, FIC); type: cell-based, Escherichia coli; details: 20 ESBL-producing ECOs
Procedure: as §1, §2, §3

ATCC25922 [3] = test: MIC determination, control strain; type: cell-based
ATCC25922 [4] = test: MIC determination, control strain ATCC25922; type: cell-based; details: EA = 95% ethanol extract
[5] = antibiotic with 10% ethanol extract
[6] = antibiotic with 60% ethanol extract
[7] = antibiotic with 95% ethanol extract
[8] = antibiotic with EA (water extract)
[9] = EA = 10% ethanol extract, 20 ESBL-producing ECO strains
[10] = EA = 60% ethanol extract, 20 ESBL-producing ECO strains
[11] = EA = 95% ethanol extract, ESBL-producing ECOs
[12] = EA = water extract, 20 ESBL-producing ECO strains
[13] = single use, 20 ESBL-producing ECOs, section of the 10% ethanol extract
[14] = single use, 20 ESBL-producing ECOs, section of the 60% ethanol extract
[15] = single use, 20 ESBL-producing ECOs, section of the 95% ethanol extract

For `NCC[C@H](O)C(=O)N[C@@H]1C[C@H](N)[C@@H](O[C@H]2O[C@H](CN)[C@@H](O)[C@H](O)[C@H]2O)[C@H](O)[C@H]1O[C@H]1O[C@H](CO)[C@@H](O)[C@H](N)[C@H]1O` [AMK, Amikacin], the “FIC, all strains” value (MDRPA; [5]) was no more than 2, the “MIC50 of the antibiotic after combined use” value (“MIC50 of the antibiotic” below) (MDRPA; [5]) was 0.0625 µg/mL and the “MIC90 of the antibiotic after combined use” value (“MIC90 of the antibiotic” for short) (MDRPA; [5]) was 4 µg/mL. The “reduction of the antibiotic's MIC50 vs single use” value (MDRPA; [5]) was 93.75%, the “reduction of the antibiotic's MIC90 vs single use” value (MDRPA; [5]) was 87.5% and the “share of strains with FIC ≤ 0.5” value (MDRPA; [5]) was 30%. For the same compound, the “FIC, all strains” value (MDRPA; [6]) was no more than 2, the “MIC50 of the antibiotic” value (MDRPA; [6]) was 0.0625 µg/mL and the “MIC90 of the antibiotic” value (MDRPA; [6]) was 2 µg/mL. The “reduction of the antibiotic's MIC50 vs single use” value (MDRPA; [6]) was 93.75%, the “reduction of the antibiotic's MIC90 vs single use” value (MDRPA; [6]) was 93.75% and the “share of strains with FIC ≤ 0.5” value (MDRPA; [6]) was 20%. The “FIC, all strains” value (MDRPA; [7]) was no more than 2, the “MIC50 of the antibiotic” value (MDRPA; [7]) was 0.12 µg/mL and the “MIC90 of the antibiotic” value (MDRPA; [7]) was 4 µg/mL. The “reduction of the antibiotic's MIC50 vs single use” value (MDRPA; [7]) was 87.5%, the “reduction of the antibiotic's MIC90 vs single use” value (MDRPA; [7]) was 87.5% and the “share of strains with FIC ≤ 0.5” value (MDRPA; [7]) was 40%. The “FIC, all strains” value (MDRPA; [8]) was no more than 2, the “MIC50 of the antibiotic” value (MDRPA; [8]) was 0.0625 µg/mL and the “MIC90 of the antibiotic” value (MDRPA; [8]) was 2 µg/mL. The “reduction of the antibiotic's MIC50 vs single use” value (MDRPA; [8]) was 93.75%, the “reduction of the antibiotic's MIC90 vs single use” value (MDRPA; [8]) was 93.75% and the “share of strains with FIC ≤ 0.5” value (MDRPA; [8]) was 35%. The “combined-use MIC” value (MDRPA; strain P1) was 0.0625 µg/mL, the “combined-use MIC” value (MDRPA; strain P2) was 0.0625 µg/mL and the “combined-use MIC” value (MDRPA; strain P3) was 1 µg/mL. For the same compound, the “combined-use MIC” value (MDRPA; strain P4) was 0.5 µg/mL, the “combined-use MIC” value (MDRPA; strain P5) was 0.0625 µg/mL and the “combined-use MIC” value (MDRPA; strain P6) was 64 µg/mL. For the same compound, the “combined-use MIC” value (MDRPA; strain P7) was 0.0625 µg/mL, the “combined-use MIC” value (MDRPA; strain P8) was 0.5 µg/mL and the “combined-use MIC” value (MDRPA; strain P9) was 0.0625 µg/mL. The “combined-use MIC” value (MDRPA; strain P10) was 1 µg/mL, the “combined-use MIC” value (MDRPA; strain P11) was 0.5 µg/mL and the “combined-use MIC” value (MDRPA; strain P12) was 8 µg/mL. The “combined-use MIC” value (MDRPA; strain P13) was 0.0625 µg/mL, the “combined-use MIC” value (MDRPA; strain P14) was 0.0625 µg/mL and the “combined-use MIC” value (MDRPA; strain P15) was 0.0625 µg/mL. The “combined-use MIC” value (MDRPA; strain P16) was 0.0625 µg/mL, the “combined-use MIC” value (MDRPA; strain P17) was 0.0625 µg/mL and the “combined-use MIC” value (MDRPA; strain P18) was 4 µg/mL. The “combined-use MIC” value (MDRPA; strain P19) was 0.0625 µg/mL, the “combined-use MIC” value (MDRPA; strain P20) was 1 µg/mL and the MIC50 (ESBL-producing ECO [1]; [9]) was 16 µg/mL (≈ 27.3 µM). For the same compound, the MIC90 (ESBL-producing ECO [1]; [9]) was 64 µg/mL (≈ 109 µM), the “MIC Range” value (ESBL-producing ECO [1]; [9]) was 4 to 512 µg/mL and the MIC50 (ESBL-producing ECO [1]; [10]) was 16 µg/mL (≈ 27.3 µM). For the same compound, the MIC90 (ESBL-producing ECO [1]; [10]) was 64 µg/mL (≈ 109 µM), the “MIC Range” value (ESBL-producing ECO [1]; [10]) was 4 to 512 µg/mL and the MIC50 (ESBL-producing ECO [1]; [11]) was 16 µg/mL (≈ 27.3 µM). For the same compound, the MIC90 (ESBL-producing ECO [1]; [11]) was 64 µg/mL (≈ 109 µM), the “MIC Range” value (ESBL-producing ECO [1]; [11]) was 4 to 512 µg/mL and the MIC50 (ESBL-producing ECO [1]; [12]) was 16 µg/mL (≈ 27.3 µM). For the same compound, the MIC90 (ESBL-producing ECO [1]; [12]) was 64 µg/mL (≈ 109 µM), the “MIC Range” value (ESBL-producing ECO [1]; [12]) was 4 to 512 µg/mL and the MIC (ESBL-producing ECO [1]; Escherichia coli) was 128 µg/mL (≈ 219 µM). For the same compound, the MIC50 (ESBL-producing ECO [1]; Escherichia coli, single use, 20 ESBL-producing ECOs, section of the water extract, read-out: MIC50) was 16 µg/mL (≈ 27.3 µM), the MIC90 (ESBL-producing ECO [1]; Escherichia coli, single use, 20 ESBL-producing ECOs, section of the water extract, read-out: MIC90) was 64 µg/mL (≈ 109 µM) and the MIC50 (ESBL-producing ECO [1]; [13]) was 16 µg/mL (≈ 27.3 µM). The MIC90 (ESBL-producing ECO [1]; [13]) was 64 µg/mL (≈ 109 µM), the MIC50 (ESBL-producing ECO [1]; [14]) was 16 µg/mL (≈ 27.3 µM) and the MIC90 (ESBL-producing ECO [1]; [14]) was 64 µg/mL (≈ 109 µM). For the same compound, the MIC50 (ESBL-producing ECO [1]; [15]) was 16 µg/mL (≈ 27.3 µM), the MIC90 (ESBL-producing ECO [1]; [15]) was 64 µg/mL (≈ 109 µM) and the “FIC, all strains” value (ESBL-producing ECO [2]; [5]) was no more than 2. For the same compound, the “MIC50 of the antibiotic” value (ESBL-producing ECO [2]; [5]) was 4 µg/mL, the “MIC90 of the antibiotic” value (ESBL-producing ECO [2]; [5]) was 16 µg/mL and the “reduction of the antibiotic's MIC50 vs single use” value (ESBL-producing ECO [2]; [5]) was 75%. The “reduction of the antibiotic's MIC90 vs single use” value (ESBL-producing ECO [2]; [5]) was 75%, the “share of strains with FIC ≤ 0.5” value (ESBL-producing ECO [2]; [5]) was 50% and the “FIC, all strains” value (ESBL-producing ECO [2]; [6]) was no more than 2. The “MIC50 of the antibiotic” value (ESBL-producing ECO [2]; [6]) was 4 µg/mL, the “MIC90 of the antibiotic” value (ESBL-producing ECO [2]; [6]) was 8 µg/mL and the “reduction of the antibiotic's MIC50 vs single use” value (ESBL-producing ECO [2]; [6]) was 75%. The “share of strains with FIC ≤ 0.5” value (ESBL-producing ECO [2]; [6]) was 70%, the “FIC, all strains” value (ESBL-producing ECO [2]; [7]) was no more than 2 and the “MIC50 of the antibiotic” value (ESBL-producing ECO [2]; [7]) was 4 µg/mL. For the same compound, the “MIC90 of the antibiotic” value (ESBL-producing ECO [2]; [7]) was 16 µg/mL, the “reduction of the antibiotic's MIC50 vs single use” value (ESBL-producing ECO [2]; [7]) was 75% and the “reduction of the antibiotic's MIC90 vs single use” value (ESBL-producing ECO [2]; [7]) was 75%. For the same compound, the “share of strains with FIC ≤ 0.5” value (ESBL-producing ECO [2]; [7]) was 50%, the “FIC, all strains” value (ESBL-producing ECO [2]; antibiotic with water extract) was no more than 2 and the “MIC50 of the antibiotic” value (ESBL-producing ECO [2]; antibiotic with water extract) was 4 µg/mL. The “MIC90 of the antibiotic” value (ESBL-producing ECO [2]; antibiotic with water extract) was 16 µg/mL, the “reduction of the antibiotic's MIC50 vs single use” value (ESBL-producing ECO [2]; antibiotic with water extract) was 75% and the “reduction of the antibiotic's MIC90 vs single use” value (ESBL-producing ECO [2]; antibiotic with water extract) was 75%. The “share of strains with FIC ≤ 0.5” value (ESBL-producing ECO [2]; antibiotic with water extract) was 50%, the MIC (ATCC25922 [3]; EA = 10% ethanol extract) was 4 µg/mL (≈ 6.83 µM) and the MIC (ATCC25922 [3]; EA = 60% ethanol extract) was 4 µg/mL (≈ 6.83 µM). The MIC (ATCC25922 [3]; EA = water extract, read-out: MIC) was 4 µg/mL (≈ 6.83 µM) and the MIC (ATCC25922 [4]) was 4 µg/mL (≈ 6.83 µM).
